Experimental findings from ChEMBL document CHEMBL1201862, “PubChem BioAssay data set” (2004) are described below.

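Cultured in 96-well plates, cells were exposed to test compound for 48 hours across five concentrations. Here, GI50 denotes the concentration required for 50% inhibition of growth.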 Activity calls are given as the source filed them. Rule as the data show it: active = GI50 up to about 1.1 µM and inactive = higher. Bounds are passed on as bounds.

Test systems include 786-0; NCI-H460; HOP-62; M14; SR; UO-31; ACHN; A498; OVCAR-8; CCRF-CEM; NCI-H226; UACC-62; Malme-3M; NCI-H23; EKVX; SF-539; OVCAR-4; PC-3; MDA-MB-231.
Holding throughout (assay): NCI-60 cell line screen, 48 h

For `COc1ccc(C(O)/C(=C/n2ccnc2)c2ccccc2)cc1OC` (stereo unspecified), the GI50 in the assay on 786-0, with NCI-H460, with HOP-62, with M14, in the assay on SR and with UO-31 was > 100 µM (inactive) throughout. Moreover, the GI50 with ACHN, in the assay on A498, in the assay with OVCAR-8, in the assay on CCRF-CEM, in the assay on NCI-H226 and in the assay with UACC-62 was > 100 µM (inactive) each time. For the same compound, the GI50 with Malme-3M, with NCI-H23, with EKVX, in the assay with SF-539 and in the assay with OVCAR-4 was > 100 µM (inactive) each time.

Take `CCNC(=S)N/N=C/c1cc(OC)ccc1O`: the GI50 was 67.1 µM (inactive) in the assay on 786-0; 35.2 µM (inactive) in the assay with NCI-H460; > 100 µM (inactive) in the assay with HOP-62; > 100 µM (inactive) with M14; 69.5 µM (inactive) in the assay with SR; 7.01 µM (inactive) in the assay on UO-31. Further, the GI50 with ACHN was 66.7 µM (inactive); with OVCAR-8, > 100 µM (inactive); in the assay on CCRF-CEM it was 66.5 µM (inactive); with NCI-H226, > 100 µM (inactive); with PC-3 it was 56.2 µM (inactive); in the assay on UACC-62, 99.1 µM (inactive). In addition, the GI50 was > 100 µM (inactive) in the assay with MDA-MB-231; > 100 µM (inactive) in the assay on Malme-3M; > 100 µM (inactive) with NCI-H23; 89.1 µM (inactive) in the assay with EKVX; > 100 µM (inactive) in the assay with SF-539; 33.7 µM (inactive) with OVCAR-4.

`COc1ccccc1NC(=S)N/N=C(/C)c1ccccn1`: the GI50 in the assay on 786-0 is < 0.0123 µM (active); with NCI-H460 it was < 0.0132 µM (active); with HOP-62, < 0.0127 µM (active); in the assay with M14, < 0.01 µM (active); with UO-31, 1.37 µM (inactive); with ACHN, < 0.0106 µM (active). Moreover, the GI50 is 0.0112 µM (active) in the assay on OVCAR-8; < 0.01 µM (active) in the assay with CCRF-CEM; < 0.01 µM (active) in the assay on PC-3; 0.238 µM (active) in the assay on UACC-62; < 0.01 µM (active) in the assay on MDA-MB-231; 0.0789 µM (active) in the assay on Malme-3M. Further, the GI50 with NCI-H23 was < 0.0185 µM (active); in the assay with EKVX it was 0.268 µM (active); in the assay on SF-539 it was 0.371 µM (active); in the assay with OVCAR-4, 0.184 µM (active).

For the compound `CCC1(O)C(=O)OCc2c1cc1n(c2=O)Cc2c-1nc1ccccc1c2OC` (stereo unspecified), the GI50 in the assay on 786-0 was < 0.01 µM (active); with NCI-H460, < 0.01 µM (active); with HOP-62 it was < 0.01 µM (active); in the assay with M14 it was < 0.0176 µM (active); in the assay on SR it was < 0.01 µM (active); in the assay on UO-31, < 0.0221 µM (active). Also, the GI50 with ACHN was < 0.01 µM (active); in the assay with A498, 0.0513 µM (active); with OVCAR-8, 0.0194 µM (active); in the assay on CCRF-CEM it was < 0.01 µM (active); in the assay with NCI-H226 it was < 0.01 µM (active); with UACC-62, < 0.01 µM (active). Besides, the GI50 is 0.15 µM (active) with Malme-3M; < 0.0121 µM (active) in the assay on NCI-H23; 2.91 µM (inactive) in the assay on EKVX; < 0.01 µM (active) with SF-539; 0.187 µM (active) with OVCAR-4.

For `C=C1C(=O)CC2C1CC(=O)/C(C)=C/CCC(C)(O)C2O` (stereo unspecified), the GI50 was 4.55 µM (inactive) in the assay on 786-0; 2.38 µM (inactive) in the assay with NCI-H460; 26.7 µM (inactive) in the assay on HOP-62; > 25.2 µM (inactive) with M14; 7.91 µM (inactive) in the assay on SR; 11.7 µM (inactive) in the assay on UO-31. Further, the GI50 is 2.37 µM (inactive) with ACHN; 1.19 µM (inactive) in the assay with A498; 4.3 µM (inactive) in the assay on OVCAR-8; 3.44 µM (inactive) with CCRF-CEM; 30.9 µM (inactive) in the assay with NCI-H226; 0.853 µM (active) in the assay with PC-3. The GI50 with UACC-62 was 0.603 µM (active); with MDA-MB-231, 1.07 µM (active); with Malme-3M it was 1.36 µM (inactive); with NCI-H23 it was 8.17 µM (inactive); in the assay on EKVX it was 18.7 µM (inactive); in the assay on OVCAR-4 it was 10.9 µM (inactive).

For `Cc1ccc(NC(=O)CC/C(CC(=O)C(C)(C)C)=N\NC(=O)C[n+]2ccccc2)cc1C`, the GI50 with 786-0 was > 100 µM (inactive); in the assay with NCI-H460, 51.9 µM (inactive); with HOP-62 it was > 100 µM (inactive); with M14 it was > 100 µM (inactive); in the assay with SR it was 78.5 µM (inactive); in the assay with UO-31 it was > 100 µM (inactive). Further, the GI50 was > 100 µM (inactive) with ACHN; > 100 µM (inactive) in the assay with A498; > 100 µM (inactive) in the assay with OVCAR-8; 45.3 µM (inactive) in the assay on CCRF-CEM; > 100 µM (inactive) in the assay on NCI-H226; > 100 µM (inactive) in the assay with UACC-62. Moreover, the GI50 in the assay with Malme-3M, in the assay with NCI-H23, with EKVX, in the assay with SF-539 and in the assay with OVCAR-4 was > 100 µM (inactive) in each case.

For the compound `COP(=O)(OC)C(NC(=O)C(F)(F)F)(c1ccccc1)C(F)(F)F` (stereo unspecified), the GI50 with 786-0, in the assay with NCI-H460, with HOP-62, with M14, with SR and in the assay with UO-31 was > 100 µM (inactive) in each case. In addition, the GI50 in the assay with ACHN, in the assay on A498, in the assay on OVCAR-8, with CCRF-CEM, with NCI-H226 and in the assay with UACC-62 was > 100 µM (inactive) each time. In addition, the GI50 in the assay with Malme-3M, in the assay on NCI-H23, with EKVX, in the assay with SF-539 and in the assay on OVCAR-4 was > 100 µM (inactive) each time.

`O=C1CC[C@@H](S(=O)(=O)c2ccccc2)[C@@H](/C=C/c2ccccc2)O1`: the GI50 in the assay with 786-0, in the assay on NCI-H460, with HOP-62, in the assay with M14, with SR and in the assay on UO-31 was > 100 µM (inactive) throughout. Also, the GI50 with ACHN, in the assay on A498, in the assay on OVCAR-8, with CCRF-CEM, in the assay on NCI-H226 and in the assay with UACC-62 was > 100 µM (inactive) throughout. The GI50 in the assay on Malme-3M, in the assay with NCI-H23, with EKVX, in the assay on SF-539 and in the assay with OVCAR-4 was > 100 µM (inactive) throughout.

`Cc1ccc2c(ccc(/C=C\c3cc(C)c4cccnc4c3O)[n+]2C)c1`: the GI50 with 786-0 is 2.32 µM (inactive); with NCI-H460, 0.439 µM (active); in the assay with HOP-62, 5.5 µM (inactive); with M14, 0.664 µM (active); with SR, 2.12 µM (inactive); in the assay on UO-31, 15.7 µM (inactive). The GI50 in the assay on ACHN is 5.65 µM (inactive); in the assay with A498 it was 14.6 µM (inactive); with OVCAR-8, 0.912 µM (active); in the assay on CCRF-CEM, 0.796 µM (active); with NCI-H226 it was 1.4 µM (inactive); with UACC-62 it was 0.535 µM (active). Also, the GI50 in the assay with Malme-3M was 8.41 µM (inactive); with NCI-H23, 2.67 µM (inactive); in the assay with EKVX, 15.9 µM (inactive); in the assay on SF-539, 1.64 µM (inactive); with OVCAR-4 it was 14.4 µM (inactive).

`Nc1ccc(Nc2cc(O)nc(O)n2)cc1`: the GI50 in the assay with 786-0, in the assay with NCI-H460, in the assay on HOP-62, in the assay on SR, in the assay with ACHN and with A498 was > 100 µM (inactive) throughout. Moreover, the GI50 with OVCAR-8, in the assay on CCRF-CEM, with NCI-H226, in the assay with PC-3, in the assay on UACC-62 and in the assay with MDA-MB-231 was > 100 µM (inactive) throughout. Besides, the GI50 with Malme-3M, in the assay on NCI-H23, with EKVX, with SF-539 and with OVCAR-4 was > 100 µM (inactive) each time.

Regarding `O=[N+]([O-])c1ccc(-c2nnc(C34CC5CC(CC(C5)C3)C4)o2)cc1`, the GI50 in the assay on 786-0, with NCI-H460, with HOP-62, in the assay with M14, with SR and with UO-31 was > 100 µM (inactive) each time. In addition, the GI50 in the assay on ACHN, in the assay with A498, in the assay on CCRF-CEM, in the assay with NCI-H226, in the assay on PC-3 and in the assay with UACC-62 was > 100 µM (inactive) in each case. Further, the GI50 with MDA-MB-231, in the assay on Malme-3M, in the assay on NCI-H23, with EKVX, with SF-539 and in the assay on OVCAR-4 was > 100 µM (inactive) each time.

Take `CC(C)(O)C(O)COc1c2c(cc3oc(=O)ccc13)OCO2` (stereo unspecified): the GI50 in the assay with 786-0, in the assay on NCI-H460, with HOP-62, in the assay on M14, with SR and in the assay with UO-31 was > 100 µM (inactive) throughout. Besides, the GI50 in the assay on ACHN, with A498, in the assay with OVCAR-8, in the assay on CCRF-CEM, with NCI-H226 and with UACC-62 was > 100 µM (inactive) each time. In addition, the GI50 in the assay with Malme-3M, with NCI-H23, in the assay with EKVX, in the assay on SF-539 and in the assay with OVCAR-4 was > 100 µM (inactive) throughout.
